In the supplement of paper PMC10307832:

Legend:
Assay in all cases: relative viability (nuclei count vs DMSO), 5 days (fraction); higher = more cells survive
Ibrutinib + Luminespib = compound: C=CC(=O)N1CCC[C@@H](n2nc(-c3ccc(Oc4ccccc4)cc3)c3c(N)ncnc32)C1 [Ibrutinib] + CCNC(=O)c1noc(-c2cc(C(C)C)c(O)cc2O)c1-c1ccc(CN2CCOCC2)cc1 [Luminespib] (partner 0.01 µM)
How it was run: (§1)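 Relative viability divides the nuclei count in treated wells by that in vehicle wells. Lung cancer cell lines were seeded in 1536-well plates, dosed by pin tool the next day, and fixed and stained after 5 days in one step with final 0.05% Triton X-100, 1% formaldehyde and 1 ug/ml Hoechst. Dosing was a single drug or a fixed anchor-drug dose plus five library-drug doses (not always all listed) in √10 steps, and values are medians of duplicate plates imaged at 4×.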

BMX-IN-1 + Tozasertib = compound: C=CC(=O)Nc1cc(-n2c(=O)ccc3cnc4ccc(-c5ccc(NS(C)(=O)=O)cc5)cc4c32)ccc1C [BMX-IN-1] + Cc1cc(Nc2cc(N3CCN(C)CC3)nc(Sc3ccc(NC(=O)C4CC4)cc3)n2)n[nH]1 [Tozasertib] (partner 0.1 µM)
How it was run: as §1

BMX-IN-1 + Phenformin = compound: C=CC(=O)Nc1cc(-n2c(=O)ccc3cnc4ccc(-c5ccc(NS(C)(=O)=O)cc5)cc4c32)ccc1C [BMX-IN-1] + N=C(N)NC(=N)NCCc1ccccc1 [Phenformin] (partner 250 µM)
How it was run: as §1

BMX-IN-1 + AZD7762 = compound: C=CC(=O)Nc1cc(-n2c(=O)ccc3cnc4ccc(-c5ccc(NS(C)(=O)=O)cc5)cc4c32)ccc1C [BMX-IN-1] + NC(=O)Nc1cc(-c2cccc(F)c2)sc1C(=O)N[C@H]1CCCNC1 [AZD7762] (partner 0.2 µM)
How it was run: as §1

Row | Cell Line | relative viability (Ibrutinib + Luminespib; first compound 0.005 µM) | relative viability (Ibrutinib + Luminespib; first compound 0.01581 µM) | relative viability (Ibrutinib + Luminespib; first compound 0.05 µM) | relative viability (Ibrutinib + Luminespib; first compound 0.1581 µM) | relative viability (Ibrutinib + Luminespib; first compound 0.5 µM) | relative viability (BMX-IN-1 + Tozasertib; first compound 0.02 µM) | relative viability (BMX-IN-1 + Tozasertib; first compound 0.2 µM) | relative viability (BMX-IN-1 + Tozasertib; first compound 0.6325 µM) | relative viability (BMX-IN-1 + Tozasertib; first compound 2 µM) | relative viability (BMX-IN-1 + Phenformin; first compound 0.02 µM) | relative viability (BMX-IN-1 + Phenformin; first compound 0.2 µM) | relative viability (BMX-IN-1 + Phenformin; first compound 0.6325 µM) | relative viability (BMX-IN-1 + Phenformin; first compound 2 µM) | relative viability (BMX-IN-1 + AZD7762; first compound 0.02 µM) | relative viability (BMX-IN-1 + AZD7762; first compound 0.2 µM) | relative viability (BMX-IN-1 + AZD7762; first compound 0.6325 µM) | relative viability (BMX-IN-1 + AZD7762; first compound 2 µM)
1 | 201T | 1.03 | 1.02 | 1.07 | 1.05 | 0.953 | 1.17 | 0.997 | 0.953 | 0.896 | 0.519 | 0.464 | 0.483 | 0.458 | 0.728 | 0.63 | 0.662 | 0.56
2 | PC-14 | 0.167 | 0.266 | 0.135 | 0.127 | 0.179 | 0.672 | 0.658 | 0.605 | 0.571 | 0.575 | 0.535 | 0.809 | 0.583 | 0.404 | 0.459 | 0.408 | 0.312
3 | RERF-LC-KJ | 1.24 | 1.12 | 1.26 | 1.14 | 1.16 | 0.566 | 0.642 | 0.472 | 0.435 | 0.439 | 0.408 | 0.42 | 0.416 | 1.1 | 0.957 | 1.3 | 1.19
4 | HCC-15 | 0.362 | 0.278 | 0.488 | 0.308 | 0.243 | 0.449 | 0.53 | 0.531 | 0.398 | 0.501 | 0.591 | 0.531 | 0.506 | 0.591 | 1.24 | 1.35 | 1.29
5 | SW 900 | – | – | 0.159 | 0.175 | 0.19 | 0.425 | 0.682 | 0.606 | 0.679 | 0.545 | 0.82 | 0.614 | 0.543 | 0.656 | 0.636 | 0.735 | 0.666
6 | NCI-H1755 | 0.318 | 0.617 | 0.55 | 0.313 | 0.531 | 0.493 | 0.578 | 0.577 | 0.519 | 0.544 | 0.673 | 0.711 | 0.612 | 0.543 | 0.491 | 0.453 | 0.466
7 | NCI-H441 | 0.362 | 0.359 | 0.266 | 0.36 | 0.235 | 0.58 | 0.873 | 0.761 | 0.846 | 0.864 | 1.02 | 0.991 | 1 | 1.12 | 1.03 | 0.997 | 1.39
8 | HOP-62 | – | 0.881 | 0.958 | 0.935 | 0.918 | 0.431 | 0.413 | 0.388 | 0.373 | 0.567 | 0.869 | 0.752 | 0.772 | 0.606 | 0.627 | 0.724 | 0.65
9 | ABC-1 | 0.476 | – | 0.68 | – | 0.562 | 0.199 | 0.162 | 0.145 | 0.172 | 0.227 | 0.232 | 0.243 | 0.229 | 0.761 | 0.848 | 0.82 | 0.868
10 | BEN | – | 0.292 | 0.318 | 0.307 | 0.462 | 0.58 | 0.498 | 0.52 | 0.507 | 0.264 | 0.259 | 0.273 | 0.254 | 0.747 | 0.706 | 0.69 | 0.707
11 | ChaGo-K-1 | 0.586 | 0.409 | 0.53 | 0.655 | 0.556 | 0.216 | 0.227 | 0.218 | 0.237 | 0.499 | 0.517 | 0.541 | 0.5 | 1.02 | 1.02 | 0.885 | 0.907
12 | NCI-H2087 | 0.161 | 0.136 | 0.153 | – | 0.165 | 0.244 | 0.24 | 0.344 | 0.263 | 0.462 | 0.572 | 0.508 | 0.443 | 1.67 | 1.44 | 1.3 | 1.42
13 | NCI-H1395 | 0.488 | 0.739 | 1.15 | 0.788 | 0.702 | 0.832 | 0.793 | 0.701 | 0.715 | 0.445 | 0.456 | 0.444 | 0.47 | 0.4 | 0.407 | 0.434 | 0.376
14 | EKVX | 0.66 | 0.784 | 0.856 | 0.81 | 0.547 | 0.519 | 0.468 | 0.445 | 0.383 | 0.21 | 0.245 | 0.247 | 0.211 | 1.02 | 0.81 | 0.843 | 0.723
15 | NCI-H23 | – | 0.22 | – | – | 0.248 | 0.331 | 0.367 | 0.586 | 0.34 | 0.724 | 0.956 | 0.828 | 0.838 | 0.211 | 0.272 | 0.18 | 0.25
16 | NCI-H3122 | 0.0621 | 0.0853 | 0.101 | 0.104 | 0.0947 | 0.516 | 0.399 | 0.461 | 0.117 | 0.377 | 0.633 | 0.41 | 0.38 | 1.22 | 1.16 | 1.11 | 1.07
